# Test results: paper PMC12469269, “Investigating SMR Peptide Interactions with Breast Cancer-Associated Proteins” (International Journal of Molecular Sciences, 2025)
# Entries after “also recorded” stand apart in the source; their conditions may differ.
# How the values were obtained:
# [1] = tested on: exNef-GFP secretion in MDA-MB-231, MCF-7, BT474 BC cells and Jurkat T cells; assay: Nef-driven exNef-GFP secretion (Figure 3), three BC cell lines and Jurkat T cells; type: cell-based, human
# Method: Figure 3 Effects of Mortalin-derived peptides on viral Nef-driven exNef secretion. (A) MDA-MB-231, (B) MCF-7, (C) BT474 BC cells, and (D) Jurkat T cells were co-transfected with 1 µg of wild-type Nef-GFP clone and 200 ng of various Mortalin-scanning peptides. The cells were then placed in a 24-well plate and incubated at 37 °C for 24 h before being assayed for extracellular vesicle secretion. Cells were also co-transfected with SMRwt or SMRmut peptides as positive and negative controls, respectively. The amount of GFP fluorescence measured was equivalent to the amount of exNef-GFP in the extracellular media. […] The bar graphs display relative levels of exosome release. In here, asterisks (* p < 0.05, ** p < 0.005, *** p < 0.0005, and **** p < 0.00005) are used to indicate levels of statistical significance. The more asterisks, the stronger the statistical significance. Data represents the mean ± SD from three independent experiments.
# Co-transfections of cells with peptides were carried out using Lipofectamine Reagent (Fisher Scientific), following the manufacturer’s protocol. One day prior to transfection, cells were trypsinized and plated at a density of 6.25 × 10^5 cells per well in 2 mL of complete growth medium. […] The cell transfection efficiency was calculated by counting the green, fluorescent cells using a fluorescence microscope.
# MDA-MB-231 cells = assay: Tumor exosome secretion, Mortalin scanning peptides (Figure 5B), MDA-MB-231; type: cell-based, human; conditions: MDA-MB-231 exosome experiment
# Mortalin (Grp-75) = assay: Co-immunoprecipitation / Western blot, Mortalin; type: binding, human; conditions: MDA-MB-231, MCF-7, BT474 lysates; anti-FLAG M2 resin, 4 °C overnight
# Method: MDA-MB-231, MCF-7, and BT474 BC cells were grown in RPMI 1640 medium containing 10% FBS at 37 °C in a T-75 tissue culture flask and collected via centrifugation at 1000× g for 20 min at 4 °C. The cell pellet was resuspended in 1 mL of 1X PBS and transferred to a 1.5 mL Eppendorf tube. Following microcentrifugation at 1000× g for 1 min, the pellet was resuspended in 1 mL of α-FLAG Lysis buffer through gentle pipetting (50 mM Tris HCl, pH 7.4; 150 mM sodium chloride [NaCl]; 1 mM EDTA; and 1% Triton X-100, with 1 mM phenylmethyl sulfonyl fluoride [PMSF] and 10 µL/mL Protease Inhibitor Cocktail with mammalian cell and tissue extracts [PIC; Sigma-Aldrich] added immediately before use). The suspension was differentially microcentrifuged at 2000× g for 5 min and at 13,000× g for 10 min to pellet the cell debris and DNA, respectively, and the supernatant (hereafter referred to as the Lysate) was collected. In total, 1 milligram of Lysate protein and 1 milligram of the SMRwt or SMRmut peptide were added to 20 µL of Anti-FLAG® M2 Affinity Gel (resin; Sigma). […]
# Cell proteins were analyzed using Western blot analysis, as described previously. […] Protein bands were detected using Western blotting Luminol Reagent (Santa Cruz Biotechnology, Inc., Santa Cruz, CA, USA). […]
Substance,"effect on Nef function (exNef-GFP secretion), in words ([1]; 1 µg Nef-GFP + 200 ng peptide, co-transfected, 37 °C, 24 h, GFP fluorescence, three independent experiments)","interaction with NefSMR domain / Nef / SMRwt peptide, in words ([1]; inferred from exNef secretion (Figures 2 and 3))",cluster formation (MDA-MB-231 cells),"co-immunoprecipitation with Mortalin, in words (Mortalin (Grp-75))"
"DQLPADECNKLKEEISKMRE [#61, Mortalin scanning peptide 61]",significant reduction in exNef-GFP secretion; also recorded: inhibit Nef function,bind HIV-1 Nef and the SMRwt peptide; also recorded: can interact with the NefSMR domain; also recorded: bound the SMR domain and effectively inhibited Nef activity,formed small clusters,
"^66Ala-Gly-Phe-Pro-Val^70 [SMRmut, 5-mer negative control, Val66 changed to Ala]",,,,"not SMRmut, co-immunoprecipitated with Mortalin"
